Data as given in patent US10227351B2, “Salt and polymorphic forms of (3R,4S)-L-((4-amino-5H-pyrrolo[3,2,-D]pyrimidin-7-yl)methyl)-4(methylthiomethyl)pyrodin-3-ol(MTDIA)” (VICTORIA LINK LIMITED, priority 2012, dated 2019).

Test: Stated properties of the phosphate salt form (no method described)
Assay type: physicochemical
Settings: comparator not stated in that sentence, no data given

Question: Which solubility does the source give for `CSC[C@H]1CN(Cc2c[nH]c3c(N)ncnc23)C[C@@H]1O` [(3R,4S)-1-((4-amino-5H-pyrrolo[3,2-d]pyrimidin-7-yl)methyl)-4-(methylthiomethyl)pyrrolidin-3-ol phosphate] here?
Answer: Its solubility is “improved”.

Question: And the stability?
Answer: The stability was “improved”.
